# From publication PMC6393897, “An LC-MS/MS Method for Simultaneous Determination of the Toxic and Active Components of Cortex Periplocae in Rat Plasma and Application to a Pharmacokinetic Study” (International Journal of Analytical Chemistry, 2019)
# Read-outs that look alike come from different tables or passages of the source.
# Assays:
# [1] = Stability of analytes in rat plasma QC samples (autosampler, room temperature, freeze/thaw, -80°C); format: in vitro ADME; conditions: for Freeze thaw cycles stability, Accuracy: three freeze (-80°C)/thaw cycles
# Procedure: (§1) The QC samples (n = 6) at three concentrations (low, medium, and high) were also used to assess the stabilities of all analytes. The QC samples under autosampler condition for 24 h were determined to evaluate the autosampler 24 h stability. For the freeze/thaw cycle stability, the QC samples stored at -80°C were subjected to three freeze to thaw (at room temperature) cycles. QC samples stored at room temperature for 24 h and -80°C for 1 month were used to evaluate the short-term stability and the long-term stability. The mixed analytes solution (100 ng/mL), which was obtained by diluting the stock solution stored for two weeks at 4°C, was used to evaluate the stability of stock solution. The stability of analytes working solution was also assessed by storing solutions 2 weeks at 4°C. The stabilities of stock and working solutions of ISs were determined by the same procedure as that for the analytes.
# [2] = Pharmacokinetic study in rats after oral administration of cortex periplocae extract (plasma LC-MS/MS); format: in vivo, rat; conditions: oral cortex periplocae extract 18.9 g/kg; for AUC: 0-48 h, read-out: AUC(0-tn); for MRT: read-out: MRT(0-tn)
# Procedure: The pharmacokinetic study was conducted in accordance with the Guidelines for the Care and Use of Laboratory Animals and approved by the Animal Ethics Committee of Tianjin University of Traditional Chinese Medicine. […] Appropriate amount of cortex periplocae extract was suspended in 0.5% carboxymethyl cellulose sodium salt aqueous solution (CMC-Na) and the volume of oral administration was 1 mL/100g. […] The rats were anesthetized with ethyl ether before each withdrawal. […] For this repeat bleeds at short intervals, fluid replacement (appropriate volume of physiological saline) was required. The blood samples were immediately centrifuged 10 min at 7000 rpm. The obtained plasma was transferred into another centrifuge tube and stored at -80°C for analysis.
# For the maximum drug concentration in plasma (Cmax) and the time to reach maximum drug concentration (Tmax), the values could be directly obtained. The other key parameters such as the area under the plasma concentration–time curve (AUC), elimination half-life (t1/2), and mean residence time (MRT) were calculated with DAS (Drug and Statistics 1.0, Medical College of Wannan, China) using non-compartmental model.
# [3] = Stability of stock and working solutions stored 2 weeks at 4°C; format: physicochemical
# Procedure: as §1, with “The QC samples under autosampler condition for 24 h were determined to evaluate the autosampler 24 h stability.” left out, “QC samples stored at room temperature for 24 h and -80°C for 1 month were used to evaluate the short-term stability and the long-term stability.” left out
# [4] = n = 6, high level (1200 ng/mL isovanillin, periplocin; 240 ng/mL others)
# [5] = n = 6, low level (7.2 ng/mL isovanillin, periplocin; 1.44 ng/mL others)
# [6] = n = 6, medium level (120 ng/mL isovanillin, periplocin; 24 ng/mL others)
# [7] = male Sprague-Dawley rats, plasma, n = 6, mean ± SD
# [8] = male, Sprague-Dawley, rat, in vivo, po, 18.9 g/kg, male Sprague-Dawley rats, plasma, n = 6, mean ± SD
# [9] = rat, in vivo, male Sprague-Dawley rats, plasma, n = 6, mean ± SD
# [10] = rat, in vivo, male Sprague-Dawley rats, plasma, n = 6, mean ± SD, read-out: Cmax
# [11] = 2 weeks at 4°C, high level (1200 ng/mL isovanillin, periplocin; 240 ng/mL scopoletin, periplogenin, periplocymarin)
# [12] = 2 weeks at 4°C, low level (7.2 ng/mL isovanillin, periplocin; 1.44 ng/mL scopoletin, periplogenin, periplocymarin)
# [13] = 2 weeks at 4°C, medium level (120 ng/mL isovanillin, periplocin; 24 ng/mL scopoletin, periplogenin, periplocymarin)
# [14] = rat, male Sprague-Dawley rats, plasma, n = 6, mean ± SD
SMILES,"-80°C for 1 month stability, Accuracy [1, 4]","Autosampler for 24 hours stability, Accuracy [1, 4]","Room temperature for 24 h stability, Accuracy [1, 4]","-80°C for 1 month stability, Accuracy [1, 5]","Autosampler for 24 hours stability, Accuracy [1, 5]","Room temperature for 24 h stability, Accuracy [1, 5]","-80°C for 1 month stability, Accuracy [1, 6]","Autosampler for 24 hours stability, Accuracy [1, 6]","Room temperature for 24 h stability, Accuracy [1, 6]","Freeze thaw cycles stability, Accuracy [1, 4]","Freeze thaw cycles stability, Accuracy [1, 5]","Freeze thaw cycles stability, Accuracy [1, 6]","AUC [2, 9]","Working solution stability, Accuracy [3, 11]","Working solution stability, Accuracy [3, 12]","Working solution stability, Accuracy [3, 13]",also measured
COC1CC(OC2CCC3(C)C4CCC5(C)C(C6=CC(=O)OC6)CCC5(O)C4CCC3(O)C2)OC(C)C1OC1OC(CO)C(O)C(O)C1O (stereo not shown) [periplocin],92.9%,113%,96.4%,115%,113%,111%,115%,109%,116%,113%,93.7%,114%,83 ± 58.6 ng·h/mL,94.4%,103%,98.9%,"t1/2 [2, 7]: 1.08 ± 0.98 h; half-life [2, 8]: 1.21 ± 1.11 h; AUC(0-inf) [2, 9]: 105 ± 70.9 ng·h/mL; Tmax [2, 9]: 0.31 ± 0.16 h; Cmax [2, 10]: 91.4 ± 53 ng/mL; MRT [2, 9]: 1.21 ± 1.11 h"
"O=Cc1ccc(O)c(O)c1 [protocatechuic aldehyde, reference compound]",,,,,,,,,,,,,,,,,"Working solution stability of ISs, accuracy ([3]; IS working solutions, 2 weeks at 4°C): 101%"
CO[C@H]1C[C@H](O[C@H]2CC[C@]3(C)[C@H]4CC[C@]5(C)[C@@H](C6=CC(=O)OC6)CC[C@]5(O)[C@@H]4CC[C@]3(O)C2)O[C@H](C)[C@H]1O [periplocymarin],102%,102%,98.5%,106%,101%,107%,102%,108%,102%,103%,113%,113%,1690 ± 1170 ng·h/mL,84.2%,110%,95.1%,"half-life [2, 8]: 30.2 ± 11.8 h; Cmax ratio periplocymarin versus periplogenin ([2]; rat plasma): 9 times; AUC(0-inf) [2, 9]: 2260 ± 1280 ng·h/mL; Tmax [2, 9]: 5.49 ± 4.34 h; Cmax [2, 10]: 126 ± 96.4 ng/mL; MRT [2, 9]: 17.1 ± 2.48 h"
C[C@]12CC[C@H](O)C[C@@]1(O)CC[C@@H]1[C@@H]2CC[C@]2(C)[C@@H](C3=CC(=O)OC3)CC[C@]12O [periplogenin],98.7%,104%,101%,109%,108%,92.6%,108%,110%,115%,92.8%,116%,112%,,81.5%,111%,99.4%,
COc1cc2ccc(=O)oc2cc1O [scopoletin],,,103%,,,,,,,,,,103 ± 76.4 ng·h/mL,,,,"Cmax [2, 7]: 177.8 ± 133.85 ng/mL; Cmax ([2]; male, Sprague-Dawley, rat, plasma, po, 18.9 g/kg, male Sprague-Dawley rats, plasma, n = 6, mean ± SD, read-out: Cmax): 178 ± 134 ng/mL; AUC(0-inf) [2, 14]: 206 ± 153 ng·h/mL; Tmax [2, 14]: 0.1 ± 0.03 h; half-life [2, 14]: 0.19 ± 0.08 h; MRT [2, 14]: 11.8 ± 6.6 h"
COc1ccc(C=O)cc1O [isovanillin],99.4%,114%,103%,109%,100%,107%,100%,112%,106%,107%,101%,98.6%,,85.0%,104%,96.1%,Detection in rat plasma after oral administration ([2]; LLOQ 2.4 ng/mL): not detected
"CC(=O)CC(c1ccccc1)c1c(O)c2ccccc2oc1=O (stereo not shown) [warfarin, reference compound]",,,,,,,,,,,,,,,,,"Working solution stability of ISs, accuracy ([3]; 2 weeks): 109%"
